Source: patent CN111517978A, “环己烯基-dl-天门冬氨酸衍生物及其制备方法、组合物与用途” (Zhongshan Wanhan Pharmaceutical Co ltd, priority 2020, dated 2020)

Tests used:
Type in all cases: cell-based
Details in all cases: component A (XP or YS) alone
[1] = tested on: Escherichia coli ATCC25922 (大肠杆菌ATCC25922); assay: Antibacterial action (MIC, FICI) against Escherichia coli ATCC25922 (Table 7)
[2] = tested on: Clostridium perfringens ATCC13124 (产气荚膜梭状芽孢杆菌ATCC13124)
[3] = tested on: Klebsiella pneumoniae NCTC 9632 (肺炎克雷伯菌NCTC 9632); assay: Antibacterial action (MIC, FICI) against Klebsiella pneumoniae NCTC 9632 (Table 9)
[4] = tested on: Stenotrophomonas maltophilia NCTC 13637 (嗜麦芽窄食单胞菌NCTC 13637); assay: Antibacterial action (MIC, FICI) against Stenotrophomonas maltophilia NCTC 13637 (Table 18)
[5] = tested on: Providencia stuartii 57 (斯氏普罗威登斯菌57); assay: Antibacterial action (MIC, FICI) against Providencia stuartii 57 (Table 12)
[6] = tested on: Serratia marcescens IFO 3736 (黏质沙雷氏菌IFO 3736); assay: Antibacterial action (MIC, FICI) against Serratia marcescens IFO 3736 (Table 10)
[7] = tested on: Bacteroides fragilis ATCC25285 (脆弱拟杆菌ATCC25285); assay: Antibacterial action (MIC, FICI) against Bacteroides fragilis ATCC25285 (Table 26)
[8] = tested on: Micrococcus lysodeikticus 2665 (溶壁微球菌2665); assay: Antibacterial action (MIC, FICI) against Micrococcus lysodeikticus 2665 (Table 4)
[9] = tested on: Streptococcus intermedius ATCC27335 (中间链球菌ATCC27335); assay: Antibacterial action (MIC, FICI) against Streptococcus intermedius ATCC27335 (Table 20)
[10] = tested on: Propionibacterium acnes ATCC11828 (痤疮丙酸杆菌ATCC11828); assay: Antibacterial action (MIC, FICI) against Propionibacterium acnes ATCC11828 (Table 21)
[11] = tested on: Shigella flexneri 2aEW-10 (福氏志贺氏菌2aEW-10); assay: Antibacterial action (MIC, FICI) against Shigella flexneri 2aEW-10 (Table 15)

Row | SMILES | MIC_A [1] | MIC_A [3] | MIC_A [4] | MIC_A [5] | MIC_A [6] | MIC_A [8] | MIC_A [9] | MIC_A [10] | also measured
1 | CCC(CC)O[C@@H]1C=C(C(=O)O)C[C@H](N)[C@H]1N [化合物11S, (3R,4R,5S)-4,5-二氨基-3-(戊-3-基氧基)环己-1-烯-1-羧酸] | 659 ng/mL | 650 ng/mL | 774 ng/mL | 1106 ng/mL | – | – | – | – | MIC_A [2]: 482 ng/mL
2 | CCC(CC)O[C@@H]1C=C(C(=O)OC)C[C@H](N)[C@H]1NC(C)=O [化合物3S, 甲基(3R,4R,5S)-4-乙酰氨基-5-氨基-3-(戊-3-基氧基)环己-1-烯-1-羧酸酯] | – | 424 ng/mL | – | – | 456 ng/mL | – | – | – | MIC_A [7]: 362 ng/mL
3 | CCC(CC)O[C@@H]1C=C(C(=O)OC)C[C@H](NC(CC(=O)O)C(=O)O)[C@H]1NC(C)=O (mixture of isomers) [化合物3P, ((1S,5R,6R)-6-乙酰氨基-3-(甲氧基羰基)-5-(戊-3-基氧基)环己-3-烯-1-基)-DL-天门冬氨酸] | – | 22 ng/mL | – | – | 11 ng/mL | – | – | – | MIC_A [7]: 11 ng/mL
4 | CCOC(=O)C1=C[C@H](OC(CC)CC)[C@H](NC(C)=O)[C@@H](NC(CC(=O)O)C(=O)O)C1 (mixture of isomers) [化合物6P, ((1S,5S,6R)-6-乙酰氨基-3-(乙氧基羰基)-5-(戊-3-基氧基)环己-3-烯-1-基)-DL-天门冬氨酸] | – | – | 17 ng/mL | – | 7 ng/mL | 26 ng/mL | 28 ng/mL | – | –
5 | CCOC(=O)C1=C[C@@H](O)[C@H](NC(C)=O)[C@@H](NC(CC(=O)O)C(=O)O)C1 (mixture of isomers) [化合物13P, ((1S,5R,6R)-6-乙酰氨基-3-(乙氧基羰基)-5-羟基环己-3-烯-1-基)-DL-天门冬氨酸] | – | 55 ng/mL | – | 54 ng/mL | – | 27 ng/mL | 22 ng/mL | – | –
6 | CCOC(=O)C1=C[C@H](OC(CC)CC)[C@@H](N)[C@H](NC(CC(=O)O)C(=O)O)C1 (mixture of isomers) [化合物17P, ((1R,5S,6S)-6-氨基-3-(乙氧基羰基)-5-(戊-3-基氧基)环己-3-烯-1-基)-DL-天门冬氨酸] | 22 ng/mL | – | 16 ng/mL | – | – | – | – | 27 ng/mL | MIC_A [2]: 21 ng/mL; MIC_A [11]: 30 ng/mL
7 | CCOC(=O)C1=C[C@@H](OC(CC)CC)[C@H](N)[C@@H](N)C1 [化合物12S, 乙基(3R,4R,5S)-4,5-二氨基-3-(戊-3-基氧基)环己-1-烯-1-羧酸酯] | – | – | – | – | 691 ng/mL | 1027 ng/mL | 406 ng/mL | – | –
8 | CCOC(=O)C1=C[C@@H](OC(C)CC)[C@H](NC(C)=O)[C@@H](NC(CC(=O)O)C(=O)O)C1 (mixture of isomers) [化合物19P, ((1S,5R,6R)-6-乙酰氨基-5-(sec-丁氧基)-3-(乙氧基羰基)环己-3-烯-1-基)-DL-天门冬氨酸] | – | – | – | 17 ng/mL | 13 ng/mL | – | 11 ng/mL | – | –
9 | CCOC(=O)C1=C[C@@H](OC(C)C)[C@H](NC(C)=O)[C@@H](N)C1 [化合物20S, 乙基(3R,4R,5S)-4-乙酰氨基-5-氨基-3-异丙氧基环己-1-烯-1-羧酸酯] | 704 ng/mL | – | 1079 ng/mL | – | – | – | – | 771 ng/mL | –
10 | CCOC(=O)C1=C[C@H](OC(CC)CC)[C@H](NC(C)=O)[C@@H](N)C1 [化合物6S, 乙基(3S,4R,5S)-4-乙酰氨基-5-氨基-3-(戊-3-基氧基)环己-1-烯-1-羧酸酯] | – | – | 473 ng/mL | – | 445 ng/mL | 556 ng/mL | 521 ng/mL | – | –
11 | CCOC(=O)C1=C[C@@H](OC(CC)CC)[C@H](NC(C)=O)[C@@H](NC(CC(=O)O)C(=O)O)C1 (mixture of isomers) [化合物1P, ((1S,5R,6R)-6-乙酰氨基-3-(乙氧基羰基)-5-(戊-3-基氧基)环己-3-烯-1-基)-DL-天门冬氨酸] | – | – | – | 13 ng/mL | – | 4 ng/mL | – | 18 ng/mL | MIC_A [2]: 12 ng/mL
12 | CCOC(=O)C1=C[C@@H](OC(CC)CC)[C@@H](NC(C)=O)[C@@H](NC(CC(=O)O)C(=O)O)C1 (mixture of isomers) [化合物8P, ((1S,5R,6S)-6-乙酰氨基-3-(乙氧基羰基)-5-(戊-3-基氧基)环己-3-烯-1-基)-DL-天门冬氨酸] | – | – | 41 ng/mL | – | – | – | – | – | MIC_A [2]: 28 ng/mL
13 | CCC(CC)O[C@H]1C=C(C(=O)O)C[C@@H](NC(CC(=O)O)C(=O)O)[C@@H]1N (mixture of isomers) [化合物16P, ((1R,5S,6S)-6-氨基-3-羧基-5-(戊-3-基氧基)环己-3-烯-1-基)-DL-天门冬氨酸] | – | 15 ng/mL | – | – | – | – | – | – | –
14 | CCOC(=O)C1=C[C@H](OC(CC)CC)[C@@H](NC(C)=O)[C@H](NC(CC(=O)O)C(=O)O)C1 (mixture of isomers) [化合物7P, ((1R,5S,6S)-6-乙酰氨基-3-(乙氧基羰基)-5-(戊-3-基氧基)环己-3-烯-1-基)-DL-天门冬氨酸] | 27 ng/mL | 25 ng/mL | – | – | – | – | – | 10 ng/mL | MIC_A [11]: 60 ng/mL
15 | CCOC(=O)C1=C[C@@H](OC(C)C)[C@H](NC(C)=O)[C@@H](NC(CC(=O)O)C(=O)O)C1 (mixture of isomers) [化合物20P, ((1S,5R,6R)-6-乙酰氨基-3-(乙氧基羰基)-5-异丙氧基环己-3-烯-1-基)-DL-天门冬氨酸] | 19 ng/mL | – | 36 ng/mL | – | – | – | – | 18 ng/mL | –
16 | CCOC(=O)C1=C[C@@H](O)[C@H](NC(C)=O)[C@@H](N)C1 [化合物13S, 乙基(3R,4R,5S)-4-乙酰氨基-5-氨基-3-羟基环己-1-烯-1-羧酸酯] | – | 1081 ng/mL | – | 1021 ng/mL | – | 914 ng/mL | 655 ng/mL | – | –
